# Test results from ChEMBL document CHEMBL3822387 (Bioorg Med Chem, 2016).
# Calls of active or inactive are those of the source. The calls are words filed in the database; no cut-off is given here.
# Experiments:
# Acetylcholinesterase [1] = biological target: Acetylcholinesterase (Electrophorus electricus, UniProt O42275)
# Description: Inhibition of electric eel ACHE preincubated for 6 mins followed by addition of acetylcholine iodide as substrate by Ellman's method
# Cholinesterase [2] = biological target: Cholinesterase (Equus caballus, UniProt P81908)
# Description: Inhibition of equine BCHE preincubated for 6 mins followed by addition of S-butyrylcholine iodide as substrate by Ellman's method
# in vitro = conditions: PAMPA
# [3] = Cytotoxicity against rat PC12 cells assessed as reduction in cell viability at 1 to 50 uM measured after 24 hrs by MTT assay; type: cell-based; conditions: pc-12, 24 h
# Acetylcholinesterase [4] = biological target: T1, Acetylcholinesterase (Homo sapiens, UniProt P22303)
# T1 sequence (P22303 whole entry): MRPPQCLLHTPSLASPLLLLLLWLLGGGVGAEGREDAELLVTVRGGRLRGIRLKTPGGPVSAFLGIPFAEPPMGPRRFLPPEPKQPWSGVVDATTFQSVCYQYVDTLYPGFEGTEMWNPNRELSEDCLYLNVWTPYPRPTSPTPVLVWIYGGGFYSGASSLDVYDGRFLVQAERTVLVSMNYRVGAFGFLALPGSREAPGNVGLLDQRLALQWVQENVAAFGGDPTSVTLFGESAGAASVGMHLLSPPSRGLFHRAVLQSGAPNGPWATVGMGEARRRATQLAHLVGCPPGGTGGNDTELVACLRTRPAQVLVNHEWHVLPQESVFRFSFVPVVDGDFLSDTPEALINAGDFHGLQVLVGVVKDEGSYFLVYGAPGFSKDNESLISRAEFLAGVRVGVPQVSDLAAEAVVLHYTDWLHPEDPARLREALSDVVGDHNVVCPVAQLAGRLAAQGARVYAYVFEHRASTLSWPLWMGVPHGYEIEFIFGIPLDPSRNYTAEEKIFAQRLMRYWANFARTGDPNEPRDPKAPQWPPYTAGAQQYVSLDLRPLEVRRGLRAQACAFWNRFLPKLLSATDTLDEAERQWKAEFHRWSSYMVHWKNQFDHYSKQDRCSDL
# Description: Inhibition of human erythrocyte ACHE preincubated for 6 mins followed by addition of acetylcholine iodide as substrate by Ellman's method
# PC-12 [5] = assay: Neuroprotective activity against H2O2-induced damage in rat PC12 cells assessed as cell viability at 1 to 10 uM preincubated for 2 hrs followed by H2O2 addition for 24 hrs by MTT assay; type: functional, cell-based
# Cholinesterase [6] = biological target: T2, Cholinesterase (Homo sapiens, UniProt P06276)
# T2 sequence (P06276 whole entry): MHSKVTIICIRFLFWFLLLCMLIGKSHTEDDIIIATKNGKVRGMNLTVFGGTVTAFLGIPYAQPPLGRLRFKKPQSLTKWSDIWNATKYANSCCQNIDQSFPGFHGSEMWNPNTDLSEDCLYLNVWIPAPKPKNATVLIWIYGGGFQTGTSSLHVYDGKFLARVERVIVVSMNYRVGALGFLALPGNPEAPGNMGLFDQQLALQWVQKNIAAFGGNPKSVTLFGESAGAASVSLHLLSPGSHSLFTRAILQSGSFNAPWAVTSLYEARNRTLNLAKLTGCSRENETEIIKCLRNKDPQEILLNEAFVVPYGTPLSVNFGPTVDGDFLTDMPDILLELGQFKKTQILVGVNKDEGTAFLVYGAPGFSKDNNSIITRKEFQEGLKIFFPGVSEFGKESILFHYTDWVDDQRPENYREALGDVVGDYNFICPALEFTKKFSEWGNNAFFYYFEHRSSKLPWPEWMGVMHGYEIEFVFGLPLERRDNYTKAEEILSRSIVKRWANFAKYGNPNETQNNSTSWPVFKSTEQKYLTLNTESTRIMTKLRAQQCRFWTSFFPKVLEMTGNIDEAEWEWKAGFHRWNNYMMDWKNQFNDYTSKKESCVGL
# Description: Inhibition of human serum BCHE preincubated for 6 mins followed by addition of S-butyrylcholine iodide as substrate by Ellman's method
# PC-12 [7] = assay: Neuroprotective activity against H2O2-induced damage in rat PC12 cells assessed as cell viability at 10 uM preincubated for 2 hrs followed by H2O2 addition for 24 hrs by MTT assay; type: functional, cell-based
# [8] = Metal chelating activity of the compound assessed as compound-Cu2+ complex formation by measuring bathochromic shift by UV-vis spectroscopy; type: physicochemical
# [9] = Metal chelating activity of the compound assessed as compound-Fe3+ complex formation by UV-vis spectroscopy by measuring maximum absorption wavelength range by UV-vis spectroscopy (reference value: 212 nm); type: physicochemical
# [10] = Metal chelating activity of the compound assessed as compound-Zn2+ complex formation by UV-vis spectroscopy by measuring maximum absorption wavelength range by UV-vis spectroscopy (reference value: 212 nm); type: physicochemical
# Acetylcholinesterase [11] = biological target: T1, Acetylcholinesterase; assay: Mixed-type inhibition of ACHE (unknown origin) using acetylcholine iodide as substrate by Line weaver-Burk reciprocal plot analysis
# Cholinesterase [12] = biological target: T2, Cholinesterase; assay: Competitive inhibition of BCHE (unknown origin) using […] as substrate by Line weaver-Burk reciprocal plot analysis
# [13] = Metal chelating activity of the compound assessed as compound-Fe2+ complex formation by measuring maximum absorption wavelength range by UV-vis spectroscopy (reference value: 212 nm); type: physicochemical
# Chain of Acetylcholinesterase (Electrophorus electricus, UniProt O42275) (O42275 whole entry): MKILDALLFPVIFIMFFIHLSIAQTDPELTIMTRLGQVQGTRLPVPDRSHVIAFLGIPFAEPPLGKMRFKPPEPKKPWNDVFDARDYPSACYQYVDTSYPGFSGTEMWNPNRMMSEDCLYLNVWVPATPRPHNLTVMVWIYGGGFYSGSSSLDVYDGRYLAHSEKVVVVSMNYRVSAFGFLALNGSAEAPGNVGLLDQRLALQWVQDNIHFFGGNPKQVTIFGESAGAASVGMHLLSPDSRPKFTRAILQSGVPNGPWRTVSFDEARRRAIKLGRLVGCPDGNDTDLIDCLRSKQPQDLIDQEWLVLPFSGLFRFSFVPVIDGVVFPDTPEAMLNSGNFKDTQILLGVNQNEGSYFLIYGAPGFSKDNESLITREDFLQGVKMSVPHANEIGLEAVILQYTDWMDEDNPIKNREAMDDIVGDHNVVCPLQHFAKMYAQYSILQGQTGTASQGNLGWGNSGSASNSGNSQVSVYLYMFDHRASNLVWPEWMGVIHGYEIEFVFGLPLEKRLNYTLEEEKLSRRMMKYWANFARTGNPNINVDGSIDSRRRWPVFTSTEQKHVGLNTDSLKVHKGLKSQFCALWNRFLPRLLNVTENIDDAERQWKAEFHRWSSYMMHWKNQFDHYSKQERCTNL
# Chain of Cholinesterase (Equus caballus, UniProt P81908) (P81908 whole entry): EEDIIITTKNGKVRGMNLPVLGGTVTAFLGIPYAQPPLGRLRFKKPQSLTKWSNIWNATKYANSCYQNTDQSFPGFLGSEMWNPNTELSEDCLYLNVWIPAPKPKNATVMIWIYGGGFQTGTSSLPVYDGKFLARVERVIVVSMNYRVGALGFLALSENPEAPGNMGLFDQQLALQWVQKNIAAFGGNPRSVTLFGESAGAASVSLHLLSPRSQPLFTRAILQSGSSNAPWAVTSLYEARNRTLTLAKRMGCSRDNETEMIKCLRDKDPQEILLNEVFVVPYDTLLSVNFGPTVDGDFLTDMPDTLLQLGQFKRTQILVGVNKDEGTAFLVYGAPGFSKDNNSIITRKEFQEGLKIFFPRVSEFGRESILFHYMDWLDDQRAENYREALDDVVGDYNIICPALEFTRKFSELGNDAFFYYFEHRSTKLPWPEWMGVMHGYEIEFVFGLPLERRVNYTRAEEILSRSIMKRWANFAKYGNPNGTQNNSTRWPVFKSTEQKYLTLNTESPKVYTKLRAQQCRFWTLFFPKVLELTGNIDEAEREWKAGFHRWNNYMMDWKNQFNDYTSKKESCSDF
Compound,IC50 (Acetylcholinesterase [1]) [µM],IC50 (Cholinesterase [2]) [µM],IC50 (Acetylcholinesterase [4]) [µM],IC50 (Cholinesterase [6]) [µM],further results
O=C(CC1CCN(Cc2ccc(Cl)cc2)CC1)NCCc1c[nH]c2ccccc12,22.4,5.29,,,
COc1ccc2[nH]cc(CCNC(=O)CC3CCN(Cc4ccccc4C)CC3)c2c1,2.2,1.28,3.6,1.03,Papp at 50 ug/ml (in vitro): 10.9 ×10⁻⁶ cm/s; Activity [3]: Non-toxic; Activity (PC-12 [5]): Active
COc1ccc2[nH]cc(CCNC(=O)CC3CCN(Cc4cccc(Cl)c4)CC3)c2c1,9.5,4.4,,,
COc1ccc2[nH]cc(CCNC(=O)C3CCN(Cc4ccccc4C)CC3)c2c1,4.42,3.21,7.42,3.01,Papp at 50 ug/ml (in vitro): 9.37 ×10⁻⁶ cm/s; Activity [3]: Non-toxic; Activity (PC-12 [5]): Active
COc1ccc2[nH]cc(CCNC(=O)CC3CCN(Cc4ccc(C)cc4)CC3)c2c1,5.26,1.48,9.26,1.06,
O=C(CCc1c[nH]c2ccccc12)NC1CCN(Cc2ccccc2)CC1,5.75,0.37,8.32,0.12,Activity [3]: Non-toxic
COc1ccc2[nH]cc(CCNC(=O)C3CCN(Cc4ccccc4)CC3)c2c1,9.27,8.21,12.2,2.21,
COc1ccc2[nH]cc(CCNC(=O)C3CCN(Cc4ccccc4[N+](=O)[O-])CC3)c2c1,54.2,28.5,,,
Cc1ccccc1CN1CCC(CC(=O)NCCc2c[nH]c3ccccc23)CC1,0.94,1.49,1.54,1.42,Papp at 50 ug/ml (in vitro): 6.91 ×10⁻⁶ cm/s; Activity [3]: Non-toxic; Activity (PC-12 [5]): Active
O=C(NCCc1c[nH]c2ccccc12)C1CCN(Cc2ccccc2[N+](=O)[O-])CC1,31.5,10.8,,,
COc1ccc2[nH]cc(CCNC(=O)CC3CCN(Cc4ccccc4Cl)CC3)c2c1,16.8,1.28,,,
COc1ccc2[nH]cc(CCNC(C)=O)c2c1,,,,,Activity (PC-12 [7]): Active
CC(=O)[C@H]1CC[C@H]2[C@@H]3CCC4=CC(=O)CC[C@]4(C)[C@H]3CC[C@]12C [PROGESTERONE],,,,,Papp at 50 ug/ml (in vitro): 5.62 ×10⁻⁶ cm/s
COc1ccc2[nH]cc(CCNC(=O)CC3CCN(Cc4ccc(Cl)cc4)CC3)c2c1,20.6,6.48,,,
Cc1cccc(CN2CCC(CC(=O)NCCc3c[nH]c4ccccc34)CC2)c1,1.63,0.95,4.63,0.85,
Cc1ccccc1CN1CCC(C(=O)NCCc2c[nH]c3ccccc23)CC1,2.25,1.5,3.56,0.4,Papp at 50 ug/ml (in vitro): 8.9 ×10⁻⁶ cm/s; Activity [3]: Non-toxic; Activity (PC-12 [5]): Active
O=C(CC1CCN(Cc2ccccc2Cl)CC1)NCCc1c[nH]c2ccccc12,28.2,1.49,,,
COc1ccc2[nH]cc(CCNC(=O)CC3CCN(Cc4cccc(C)c4)CC3)c2c1,9.5,4.4,13.5,1.4,
O=C(CC1CCN(Cc2ccccc2)CC1)NCCc1c[nH]c2ccccc12,2.1,1.1,3.8,0.95,Papp at 50 ug/ml (in vitro): 7.4 ×10⁻⁶ cm/s
O=C(CCc1c[nH]c2ccccc12)NCCC1CCN(Cc2ccccc2)CC1,0.193,0.073,0.273,0.056,Papp at 50 ug/ml (in vitro): 6.98 ×10⁻⁶ cm/s; Activity [8]: 219 nm; Activity [9]: 216 nm; Activity [10]: 214 nm; Activity [3]: Non-toxic; inhibition (Acetylcholinesterase [11]): Active; inhibition (Cholinesterase [12]): Active; Activity (PC-12 [5]): Active; Activity [13]: 216 nm
Cc1ccc(CN2CCC(CC(=O)NCCc3c[nH]c4ccccc34)CC2)cc1,1.94,1.29,4.94,0.29,
O=C(CC1CCN(Cc2cccc(Cl)c2)CC1)NCCc1c[nH]c2ccccc12,1.63,0.95,,,
O=C(NCCc1c[nH]c2ccccc12)C1CCN(Cc2ccccc2)CC1,5.55,3.3,7.85,2,
Cc1c(C)c2c(c(C)c1O)CCC(C)(C(=O)O)O2 (centres undefined),,,,,Activity (PC-12 [7]): Active
